This assay has as its target T1, hOX2R (Homo sapiens, UniProt O43614).
T1 construct: expressed in transfected cells; host or cells: CHO cells (G418 selection)
T1 sequence (O43614 1-444): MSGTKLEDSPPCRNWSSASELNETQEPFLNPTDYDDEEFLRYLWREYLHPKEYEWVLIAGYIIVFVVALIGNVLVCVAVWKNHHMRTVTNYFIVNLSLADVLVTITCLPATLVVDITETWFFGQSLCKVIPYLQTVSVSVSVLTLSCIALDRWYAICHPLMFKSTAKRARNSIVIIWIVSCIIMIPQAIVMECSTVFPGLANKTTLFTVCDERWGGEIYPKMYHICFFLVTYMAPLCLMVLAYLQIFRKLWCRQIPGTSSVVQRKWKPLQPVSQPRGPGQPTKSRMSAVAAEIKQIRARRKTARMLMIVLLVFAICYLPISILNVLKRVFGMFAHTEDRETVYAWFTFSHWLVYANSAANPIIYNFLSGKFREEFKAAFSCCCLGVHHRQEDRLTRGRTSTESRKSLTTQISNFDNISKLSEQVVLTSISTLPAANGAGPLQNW
As to the kind of experiment: hOX2R IPone assay (orexin receptor agonism). Format: cell-based. The conditions noted are these: IPone readout; for hOX2R_Ipone max %act: maximal activation; for pEC50: orexin receptor agonist, read-out: hOX2R_IPone EC50.

pEC50: −log10 of the molar value.

Usually pEC50 stands for −log10 of the EC50, conventionally taken in molar units. For the molecule `CCN1C(=O)N[C@@H](CCC(C)(F)F)CCOCCOc2nc(cc3ncnn23)-c2cc(ncc2OC)[C@H]1C` [Example 169, (3R,E)-7-(3,3-difluorobutyl)-4-ethyl-25-methoxy-3-methyl-10,13-dioxa-4,6-diaza-1(7,5)-[1,2,4]triazolo[1,5-c]pyrimidina-2(4,2)-pyridinacyclotridecaphan-5-one], the hOX2R_Ipone max %act came to 111.8% and the negative-log EC50 (pEC50) was 8.47.

Take `CCN1C(=O)N[C@@H](CCC(F)(F)F)CCCCCOc2nc(cn3c(C)cnc23)-c2cc(nc3ccoc23)C1C` (single isomer, unassigned) [Example 76A]: the hOX2R_Ipone max %act was 98.9% and the pEC50 was 6.69.

As to `CCN1C(=O)N[C@@H](CCC(F)(F)F)CCCCCOc2nc(cn3ccnc23)-c2nc(ncc2C)[C@@H]1C` [Example 93A, (12S,16R)-13-ethyl-8,12-dimethyl-16-(3,3,3-trifluoro-propyl)-12,13,16,17, 18,19,20,21-octa-hydro-6,23:11,7-di(azeno)imidazo[2,1-c][1,4,10,13,15]oxatet-raazacyclohenicosin-14(15H)-one], the hOX2R_Ipone max %act came to 100.8% and the pEC50 was 6.78.

Consider “(3R,7S,E)-4-ethyl-25-methoxy-3-methyl-7-(3,3,3-trifluoropropyl)-13-oxa-10-thia-4,6-diaza-1(6,8)-[1,2,4]triazolo[1,5-a]pyrazina-2(4,2)-pyridinacyclotridecaphan-5-one [Example 134]”, for which the hOX2R_Ipone max %act turned out to be 100.6% and the pEC50 was 8.19.

Regarding `CCN1C(=O)N[C@@H](CCC(F)(F)F)CCCCCOc2cc(nn3c(C)cnc23)-c2cc(ncc2OC)[C@H]1C` [Example 168, (3R,7R,E)-4-ethyl-25-methoxy-13,3-dimethyl-7-(3,3,3-trifluoropropyl)-13-oxa-4,6-diaza-1(6,8)-imidazo[1,2-b]pyridazina-2(4,2)-pyridinacyclotridecaphan-5-one], the hOX2R_Ipone max %act was 99.31% and the pEC50 is 8.63.

For `CCN1C(=O)N[C@@H](CCC(F)(F)F)CCCCCOc2nc(cn3ccnc23)-c2nc(co2)C1C` (single isomer, unassigned) [Example 105A], the hOX2R_Ipone max %act is listed as 73.0% and the pEC50 is 5.87.

Take `CCN1C(=O)N[C@@H](CCC(F)(F)F)COCCCOc2nc(cn3ncnc23)-c2cc(ncc2OC)[C@H]1C` [Example 174, (3R,7S,E)-4-ethyl-25-methoxy-3-methyl-7-(3,3,3-trifluoropropyl)-9,13-dioxa-4,6-diaza-1(6,8)-[1,2,4]triazolo[1,5-a]pyrazina-2(4,2)-pyridinacyclotridecaphan-5-one]: the hOX2R_Ipone max %act worked out at 103.8% and the pEC50 is 8.51.

Take `CCN1C(=O)N[C@@H](CCC(F)(F)F)CCCCCc2cc(cn3ccnc23)-c2nc(ccc2OC)[C@H]1C` [Example 138, (3R,7R,Z)-4-ethyl-23-methoxy-3-methyl-7-(3,3,3-trifluoropropyl)-4,6-diaza-1(6,8)-imidazo[1,2-a]pyridina-2(2,6)-pyridinacyclododecaphan-5-one]: the hOX2R_Ipone max %act stood at 100.1% and the pEC50 was 8.07.

`CCN1C(=O)NC2CN(CCCCOc3nc(cn4ccnc34)-c3cc(ncc3OC)[C@H]1C)CC2C(F)(F)F` (single isomer, unassigned) [Example 214]: the hOX2R_Ipone max %act is 102.9% and the pEC50 was 8.46.

In the case of `CCN1C(=O)N[C@@H](CCC(F)(F)F)CCCCCOc2nc(nn3ccnc23)-c2cccc(c2)[C@H]1C` [Example 87, (12R,16R)-13-ethyl-12-methyl-16-(3,3,3-trifluoropropyl)-12,13,16,17,18,19,20, 21-octahydro-6,23-(azeno)-11,7-(metheno)imidazo[2,1-c][1,4,5,13,15] oxatetraazacycloheni-cosin-14(15H)-one], the hOX2R_Ipone max %act stood at 100.6% and the pEC50 was 8.24.

Take `CCN1C(=O)N[C@@H](CCC(F)(F)F)CCCCCOc2cc(cc3ccnn23)-n2nc(cc2C2CC2)C1C` (mixture of isomers) [Example 210, (16E,22E,7R)-25-cyclopropyl-4-ethyl-3-methyl-7-(3,3,3-trifluoropropyl)-21H-13-oxa-4,6-diaza-1(5,7)-pyrazolo[1,5-a]pyridina-2(1,3)-pyrazolacyclotridecaphan-5-one]: the hOX2R_Ipone max %act came to 102.8% and the pEC50 was 8.28.

`CCN1C(=O)N[C@@H](CCC(F)(F)F)CCC(O)CCOc2nc(cn3ccnc23)-c2cc(cnc2C)[C@H]1C` (single isomer, unassigned) [Example 137]: the hOX2R_Ipone max %act was 100.7% and the pEC50 is 8.33.

For `CCN1C(=O)N[C@H](C(F)(F)F)CCCCCOc2nc(cn3ccnc23)-c2cc(ncc2OC)[C@H]1C` [Example 115, (12R,16S)-13-ethyl-8-methoxy-12-methyl-16-(trifluoromethyl)-12,13,16,17,18,19,20,21-octahydro-6,23-(azeno)-11,7-(metheno)imidazo[2,1-c][1,4,10,13,15]oxatetraazacyclohenicosin-14(15H)-one], the hOX2R_Ipone max %act turned out to be 97.2% and the pEC50 was 6.06.

For the molecule `CCN1C(=O)NCCCNCCOc2nc(cn3ccnc23)-c2cccc(c2)[C@H]1C` [Example 11], the hOX2R_Ipone max %act was determined as 75.54% and the pEC50 is 6.11.

For the molecule `CCN1C(=O)N[C@@H](CCC(F)(F)F)CCCCCOc2nc(cn3ccnc23)-c2nc(co2)C1C` (single isomer, unassigned) [Example 105B], the hOX2R_Ipone max %act was determined as 100% and the pEC50 was 7.21.

On to `CCN1C(=O)N[C@@H](CCC(F)(F)F)CCCCCOc2nc(cn3ccnc23)-c2cc(nc(C)n2)[C@@H]1C` [Example 119A, (12S,16R)-13-ethyl-9,12-dimethyl-16-(3,3,3-trifluoropropyl)-12,13,16,17,18,19,20,21-octahydro-6,23-(azeno)-11,7-(metheno)imidazo[2,1-c][1,4,8,10,13,15]oxapentaazacyclohenicosin-14(15H)-one], for which the hOX2R_Ipone max %act is 100.1% and the pEC50 is 6.78.

In the case of `CCN1C(=O)N[C@@H](CCC(C)(F)F)CCOCCOc2nc(nn3ccnc23)-c2cc(ncc2OC)[C@H]1C` [Example 155, (3R,7S,E)-7-(3,3-difluorobutyl)-4-ethyl-25-methoxy-3-methyl-10,13-dioxa-4,6-diaza-1(2,4)-imidazo[2,1-f][1,2,4]triazina-2(4,2)-pyridinacyclotridecaphan-5-one], the hOX2R_Ipone max %act was determined as 96.86% and the pEC50 was 9.13.

Take `CCN1C(=O)N[C@@H](CCC(C)(F)F)CCOCCOc2nc(cn3ncnc23)-c2cc(cnc2OC)[C@H]1C` [Example 148, (3R,7S,E)-7-(3,3-difluorobutyl)-4-ethyl-22-methoxy-3-methyl-10,13-dioxa-4,6-diaza-1(6,8)-[1,2,4]triazolo[1,5-a]pyrazina-2(3,5)-pyridinacyclotridecaphan-5-one]: the hOX2R_Ipone max %act is on record as 101.7% and the pEC50 is 8.77.

As for `CCN1C(=O)NC(CC2(C)CC2)CCCCCOc2nc(nn3ccnc23)-c2cc(ncc2OC)[C@H]1C` (stereo partly drawn) [Example 206, (3R,E)-4-ethyl-25-methoxy-3-methyl-7-((1-methylcyclo-propyl)methyl)-13-oxa-4,6-diaza-1(2,4)-imidazo[2,1-f] [1,2,4]triazina-2(4,2)-pyridina-cyclotridecaphan-5-one], the hOX2R_Ipone max %act stood at 107.8% and the pEC50 was 8.68.

In the case of `CCN1C(=O)N[C@@H](CCC(F)(F)F)CCCCCOc2cc(nc3ccnn23)-c2cc(ncc2OC)[C@H]1C` [Example 100, (11R,15R)-12-ethyl-7-methoxy-11-methyl-15-(3,3,3-trifluoropropyl)-11,12,15,16,17,18,19, 20-octahydro-5,22: 10,6-di(metheno)pyrazolo [1,5-c][1,3,5,10,13,15] oxapentaazacycloheni-cosin-13(14H)-one], the hOX2R_Ipone max %act is recorded as 102.2% and the pEC50 was 8.00.

Turning to `CCN1C(=O)N[C@@H](CCC(F)(F)F)CCCCCOc2nc(cn3ccnc23)-c2cc(nc3ccoc23)C1C` (single isomer, unassigned) [Example 74B], the hOX2R_Ipone max %act came out at 101.2% and the pEC50 is 9.05.

With `CCN1C(=O)N[C@@H](CCC(F)(F)F)CCCCOc2nc(nn3ccnc23)-c2cc(cnc2OC)[C@H]1C` [Example 46, (3R,7R,E)-4-ethyl-22-methoxy-3-methyl-7-(3,3,3-trifluoropropyl)-12-oxa-4,6-diaza-1(2,4)-imidazo[2,1-f][1,2,4]triazina-2(3,5)-pyridinacyclododecaphan-5-one], the hOX2R_Ipone max %act was 99.9% and the pEC50 is 8.00.

`CCN1C(=O)NC(CCC(F)F)CCCCCOc2cc(nn3ccnc23)-c2cc(ncc2F)[C@H]1C` (stereo partly drawn) [Example 204, (3R,E)-7-(3,3-difluoropropyl)-4-ethyl-25-fluoro-3-methyl-13-oxa-4,6-diaza-1(6,8)-imidazo[1,2-b]pyridazina-2(4,2)-pyridina-cyclotridecaphan-5-one]: the hOX2R_Ipone max %act came to 100.5% and the pEC50 was 8.68.

Turning to `CCN1C(=O)N[C@@H](CCC(F)(F)F)CCCCCOc2cc(nn3cc(C)nc23)-c2cc(ncc2OC)[C@H]1C` [Example 166, (3R,7R,E)-4-ethyl-25-methoxy-12,3-dimethyl-7-(3,3,3-trifluoropropyl)-13-oxa-4,6-diaza-1(6,8)-imidazo[1,2-b]pyridazina-2(4,2)-pyridinacyclotridecaphan-5-one], the hOX2R_Ipone max %act is given as 102% and the pEC50 is 7.82.

These data come from patent US12686690B2, “Macrocyclic urea orexin receptor agonists” (Merck Sharp & Dohme LLC, priority 2020, dated 2026).
